Experimental data: ChEMBL document CHEMBL5465560, “Selectivity Literature for EUbOPEN Chemogenomic Library” (2024)

Columns and labels:
[1] = target: T1, Tyrosine-protein kinase Mer (Homo sapiens) (UniProt Q12866); assay: Selectivity interaction (Kinase panel (DSF assay)) EUB0001559a MERTK
T1 sequence (whole entry): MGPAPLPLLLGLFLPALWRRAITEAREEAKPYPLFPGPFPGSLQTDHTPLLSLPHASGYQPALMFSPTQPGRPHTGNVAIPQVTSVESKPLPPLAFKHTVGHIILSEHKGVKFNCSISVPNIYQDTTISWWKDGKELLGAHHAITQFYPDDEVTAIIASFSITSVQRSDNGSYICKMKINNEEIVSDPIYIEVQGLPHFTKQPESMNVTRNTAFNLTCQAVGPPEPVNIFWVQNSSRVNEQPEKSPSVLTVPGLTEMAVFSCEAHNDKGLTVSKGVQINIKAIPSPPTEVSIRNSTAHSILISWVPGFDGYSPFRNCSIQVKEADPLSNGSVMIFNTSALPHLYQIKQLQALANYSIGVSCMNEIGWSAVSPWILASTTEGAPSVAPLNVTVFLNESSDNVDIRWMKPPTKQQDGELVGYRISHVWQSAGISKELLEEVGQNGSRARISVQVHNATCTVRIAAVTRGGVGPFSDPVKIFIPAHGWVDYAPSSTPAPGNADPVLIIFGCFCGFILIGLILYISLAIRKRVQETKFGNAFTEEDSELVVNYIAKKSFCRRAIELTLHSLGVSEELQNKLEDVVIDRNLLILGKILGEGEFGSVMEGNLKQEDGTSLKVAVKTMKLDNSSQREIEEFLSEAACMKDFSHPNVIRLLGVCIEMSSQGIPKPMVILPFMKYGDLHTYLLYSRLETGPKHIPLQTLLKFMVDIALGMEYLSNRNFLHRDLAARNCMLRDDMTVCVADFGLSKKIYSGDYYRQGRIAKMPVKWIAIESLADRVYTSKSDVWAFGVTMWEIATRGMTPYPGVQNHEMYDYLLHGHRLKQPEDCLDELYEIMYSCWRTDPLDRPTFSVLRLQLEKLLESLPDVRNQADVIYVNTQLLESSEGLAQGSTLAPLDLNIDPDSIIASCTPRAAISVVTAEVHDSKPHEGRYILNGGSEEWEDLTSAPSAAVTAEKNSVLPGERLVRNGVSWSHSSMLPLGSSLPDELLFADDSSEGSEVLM

[2] = tested on: Epidermal growth factor receptor (Homo sapiens), P00533 [UNDEFINED MUTATION]; assay: Selectivity interaction (KinomeScan (DiscoverX)) EUB0000045b EGFR; conditions: at 10 µM
Misshapen-like kinase 1 = Misshapen-like kinase 1 (Homo sapiens, UniProt Q8N4C8); assay: Selectivity interaction (Kinase screening (Nanosyn)) EUB0000604a MINK1
[3] = target: Phosphatidylinositol 4,5-bisphosphate 3-kinase catalytic subunit alpha isoform (Homo sapiens) (UniProt P42336); assay: Selectivity interaction (ProQinase) EUB0000171b PIK3CA
[4] = target: SRSF protein kinase 3 (Homo sapiens) (UniProt Q9UPE1); assay: Selectivity interaction (KinomeScan (DiscoverX)) EUB0001619a SRPK3; conditions: at 1 µM
[5] = target: T2, Serine/threonine-protein kinase BRSK1 (Homo sapiens) (UniProt Q8TDC3); assay: Selectivity interaction (KinomeScan (DiscoverX)) EUB0000607a BRSK1; conditions: at 10 µM
T2 sequence (whole entry): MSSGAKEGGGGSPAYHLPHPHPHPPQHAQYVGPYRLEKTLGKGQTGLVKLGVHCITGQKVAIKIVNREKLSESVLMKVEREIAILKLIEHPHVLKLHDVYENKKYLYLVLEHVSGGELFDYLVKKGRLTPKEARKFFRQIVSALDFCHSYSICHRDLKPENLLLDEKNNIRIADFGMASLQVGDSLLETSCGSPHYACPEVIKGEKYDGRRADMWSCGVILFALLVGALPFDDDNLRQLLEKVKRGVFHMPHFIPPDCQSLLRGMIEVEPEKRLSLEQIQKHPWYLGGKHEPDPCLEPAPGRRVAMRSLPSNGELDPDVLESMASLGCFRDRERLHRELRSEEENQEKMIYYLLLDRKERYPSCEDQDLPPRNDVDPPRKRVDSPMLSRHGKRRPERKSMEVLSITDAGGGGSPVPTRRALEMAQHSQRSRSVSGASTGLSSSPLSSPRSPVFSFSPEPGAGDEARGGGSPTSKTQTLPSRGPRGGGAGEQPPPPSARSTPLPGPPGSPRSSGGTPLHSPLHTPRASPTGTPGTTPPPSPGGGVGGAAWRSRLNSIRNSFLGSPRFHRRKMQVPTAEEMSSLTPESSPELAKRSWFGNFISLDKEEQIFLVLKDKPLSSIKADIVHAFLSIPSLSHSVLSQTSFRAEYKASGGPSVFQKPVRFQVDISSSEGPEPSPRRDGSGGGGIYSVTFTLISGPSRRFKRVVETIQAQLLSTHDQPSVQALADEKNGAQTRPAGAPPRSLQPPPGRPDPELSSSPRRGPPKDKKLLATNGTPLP

[6] = target: LIM domain kinase 2 (Homo sapiens) (UniProt P53671); assay: Selectivity interaction (Kinase panel (Invitrogen)) EUB0000639a LIMK2; conditions: at 200 nM
[7] = target: T3, Phosphatidylinositol 5-phosphate 4-kinase type-2 gamma (Homo sapiens) (UniProt Q8TBX8); assay: Selectivity interaction (ActivX KiNativ screen (kinase selectivity in THP-1 cell lysates)) EUB0000639a PIP4K2C; type: subcellular; conditions: lysate
T3 sequence (whole entry): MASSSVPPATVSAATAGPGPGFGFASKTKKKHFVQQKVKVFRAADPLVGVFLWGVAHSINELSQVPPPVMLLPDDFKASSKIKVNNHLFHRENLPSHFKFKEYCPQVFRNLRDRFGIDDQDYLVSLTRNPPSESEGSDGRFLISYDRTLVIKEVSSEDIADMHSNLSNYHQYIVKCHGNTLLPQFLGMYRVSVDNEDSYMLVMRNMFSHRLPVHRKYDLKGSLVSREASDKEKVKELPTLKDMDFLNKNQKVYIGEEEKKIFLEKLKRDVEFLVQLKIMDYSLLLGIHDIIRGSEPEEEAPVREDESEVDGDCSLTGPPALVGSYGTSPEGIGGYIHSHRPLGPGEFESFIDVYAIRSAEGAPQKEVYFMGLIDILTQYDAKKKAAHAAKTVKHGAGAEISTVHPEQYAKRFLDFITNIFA

[8] = target: Tyrosine-protein kinase Lyn (Homo sapiens, UniProt P07948); assay: Selectivity interaction (KinomeScan (DiscoverX)) EUB0000655a LYN; conditions: at 10 µM
Sequence of Tyrosine-protein kinase Lyn (P07948 2-512 limits assumed): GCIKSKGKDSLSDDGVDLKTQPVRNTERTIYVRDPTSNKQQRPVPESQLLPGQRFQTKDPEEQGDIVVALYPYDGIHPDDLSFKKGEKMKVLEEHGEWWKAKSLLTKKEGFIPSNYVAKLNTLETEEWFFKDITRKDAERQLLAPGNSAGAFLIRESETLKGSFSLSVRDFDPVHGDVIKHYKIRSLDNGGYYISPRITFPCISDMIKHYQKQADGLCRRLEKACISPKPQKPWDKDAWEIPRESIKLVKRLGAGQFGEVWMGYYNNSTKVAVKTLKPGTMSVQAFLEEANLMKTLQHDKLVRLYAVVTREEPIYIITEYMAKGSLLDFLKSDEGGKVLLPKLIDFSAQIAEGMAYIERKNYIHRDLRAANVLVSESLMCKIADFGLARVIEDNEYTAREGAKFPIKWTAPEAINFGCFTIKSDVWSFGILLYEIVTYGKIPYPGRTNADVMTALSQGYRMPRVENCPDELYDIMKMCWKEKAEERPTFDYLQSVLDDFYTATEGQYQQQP

Sequence of Phosphatidylinositol 4,5-bisphosphate 3-kinase catalytic subunit alpha isoform (Homo sapiens) (P42336 whole entry, canonical isoform): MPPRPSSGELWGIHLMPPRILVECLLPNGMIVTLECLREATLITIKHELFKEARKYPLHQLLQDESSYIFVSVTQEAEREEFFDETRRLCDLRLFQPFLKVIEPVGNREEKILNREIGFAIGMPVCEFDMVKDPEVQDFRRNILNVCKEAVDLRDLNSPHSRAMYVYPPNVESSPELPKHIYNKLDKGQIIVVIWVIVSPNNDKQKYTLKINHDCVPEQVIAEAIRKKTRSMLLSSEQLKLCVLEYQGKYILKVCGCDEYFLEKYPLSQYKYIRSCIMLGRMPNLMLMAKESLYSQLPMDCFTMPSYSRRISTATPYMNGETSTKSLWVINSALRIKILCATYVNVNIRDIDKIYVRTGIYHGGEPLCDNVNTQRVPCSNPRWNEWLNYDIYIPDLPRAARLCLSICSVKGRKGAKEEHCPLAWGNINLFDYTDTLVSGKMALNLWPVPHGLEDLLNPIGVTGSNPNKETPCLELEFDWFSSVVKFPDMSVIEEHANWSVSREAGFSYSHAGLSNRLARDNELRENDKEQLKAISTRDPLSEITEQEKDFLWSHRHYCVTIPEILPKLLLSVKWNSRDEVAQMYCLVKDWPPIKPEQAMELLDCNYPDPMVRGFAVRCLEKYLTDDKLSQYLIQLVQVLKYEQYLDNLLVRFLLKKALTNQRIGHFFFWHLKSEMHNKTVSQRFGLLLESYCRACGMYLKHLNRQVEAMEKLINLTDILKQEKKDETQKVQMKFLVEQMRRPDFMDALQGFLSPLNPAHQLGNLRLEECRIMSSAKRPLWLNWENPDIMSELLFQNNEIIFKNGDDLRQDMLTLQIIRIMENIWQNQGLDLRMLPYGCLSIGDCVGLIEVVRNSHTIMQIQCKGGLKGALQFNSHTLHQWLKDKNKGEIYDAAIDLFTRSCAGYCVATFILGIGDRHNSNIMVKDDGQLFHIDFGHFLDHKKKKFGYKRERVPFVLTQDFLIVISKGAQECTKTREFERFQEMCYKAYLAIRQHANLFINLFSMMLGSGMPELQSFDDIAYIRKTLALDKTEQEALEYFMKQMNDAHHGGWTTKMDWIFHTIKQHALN
Sequence of LIM domain kinase 2 (Homo sapiens) (P53671 whole entry, looked up, the tested form may be a part): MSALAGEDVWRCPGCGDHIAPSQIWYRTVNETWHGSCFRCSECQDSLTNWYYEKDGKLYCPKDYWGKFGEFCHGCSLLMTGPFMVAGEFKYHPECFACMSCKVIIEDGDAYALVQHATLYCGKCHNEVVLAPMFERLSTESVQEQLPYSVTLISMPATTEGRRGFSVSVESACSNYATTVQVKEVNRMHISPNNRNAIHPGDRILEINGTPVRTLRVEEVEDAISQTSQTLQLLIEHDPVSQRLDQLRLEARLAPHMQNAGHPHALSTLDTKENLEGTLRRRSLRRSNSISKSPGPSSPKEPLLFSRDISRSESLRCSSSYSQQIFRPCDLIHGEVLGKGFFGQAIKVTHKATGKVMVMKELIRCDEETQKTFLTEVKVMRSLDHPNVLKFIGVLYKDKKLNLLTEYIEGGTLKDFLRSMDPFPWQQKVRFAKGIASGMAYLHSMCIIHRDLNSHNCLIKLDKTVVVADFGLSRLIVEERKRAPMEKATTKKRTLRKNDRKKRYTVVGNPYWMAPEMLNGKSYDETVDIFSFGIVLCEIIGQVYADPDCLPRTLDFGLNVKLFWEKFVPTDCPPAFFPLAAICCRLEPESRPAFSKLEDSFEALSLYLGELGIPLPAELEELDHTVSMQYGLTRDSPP
Sequence of Epidermal growth factor receptor (Homo sapiens), P00533 [UNDEFINED MUTATION] (P00533 whole entry, looked up, change not shown): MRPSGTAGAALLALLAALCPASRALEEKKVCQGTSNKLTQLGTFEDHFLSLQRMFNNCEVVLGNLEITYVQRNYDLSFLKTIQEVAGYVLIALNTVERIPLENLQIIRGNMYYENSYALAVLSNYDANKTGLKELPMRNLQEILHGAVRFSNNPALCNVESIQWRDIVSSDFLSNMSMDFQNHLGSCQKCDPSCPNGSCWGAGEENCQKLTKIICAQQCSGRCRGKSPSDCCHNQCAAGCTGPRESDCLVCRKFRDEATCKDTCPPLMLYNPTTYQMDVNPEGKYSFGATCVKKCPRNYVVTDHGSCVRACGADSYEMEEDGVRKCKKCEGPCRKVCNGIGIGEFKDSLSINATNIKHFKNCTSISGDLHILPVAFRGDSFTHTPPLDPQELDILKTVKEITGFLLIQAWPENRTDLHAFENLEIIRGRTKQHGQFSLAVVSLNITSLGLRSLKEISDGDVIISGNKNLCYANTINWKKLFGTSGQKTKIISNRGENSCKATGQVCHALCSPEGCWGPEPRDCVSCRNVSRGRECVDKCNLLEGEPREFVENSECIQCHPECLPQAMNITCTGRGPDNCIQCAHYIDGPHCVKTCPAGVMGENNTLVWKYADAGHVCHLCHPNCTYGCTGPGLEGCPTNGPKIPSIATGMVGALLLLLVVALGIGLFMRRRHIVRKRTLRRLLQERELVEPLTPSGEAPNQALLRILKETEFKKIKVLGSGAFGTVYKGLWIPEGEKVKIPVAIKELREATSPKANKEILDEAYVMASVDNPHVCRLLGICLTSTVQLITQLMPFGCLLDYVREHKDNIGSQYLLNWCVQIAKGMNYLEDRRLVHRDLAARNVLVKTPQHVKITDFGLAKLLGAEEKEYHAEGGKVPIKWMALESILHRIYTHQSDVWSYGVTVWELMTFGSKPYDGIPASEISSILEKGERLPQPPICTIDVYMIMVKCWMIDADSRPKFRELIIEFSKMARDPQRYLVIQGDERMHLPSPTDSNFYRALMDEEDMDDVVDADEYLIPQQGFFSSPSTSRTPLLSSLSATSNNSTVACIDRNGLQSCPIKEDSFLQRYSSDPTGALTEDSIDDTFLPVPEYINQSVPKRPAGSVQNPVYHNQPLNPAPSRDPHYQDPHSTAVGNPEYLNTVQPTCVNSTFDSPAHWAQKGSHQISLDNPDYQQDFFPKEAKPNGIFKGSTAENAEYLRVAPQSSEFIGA
Sequence of SRSF protein kinase 3 (Homo sapiens) (Q9UPE1 whole entry): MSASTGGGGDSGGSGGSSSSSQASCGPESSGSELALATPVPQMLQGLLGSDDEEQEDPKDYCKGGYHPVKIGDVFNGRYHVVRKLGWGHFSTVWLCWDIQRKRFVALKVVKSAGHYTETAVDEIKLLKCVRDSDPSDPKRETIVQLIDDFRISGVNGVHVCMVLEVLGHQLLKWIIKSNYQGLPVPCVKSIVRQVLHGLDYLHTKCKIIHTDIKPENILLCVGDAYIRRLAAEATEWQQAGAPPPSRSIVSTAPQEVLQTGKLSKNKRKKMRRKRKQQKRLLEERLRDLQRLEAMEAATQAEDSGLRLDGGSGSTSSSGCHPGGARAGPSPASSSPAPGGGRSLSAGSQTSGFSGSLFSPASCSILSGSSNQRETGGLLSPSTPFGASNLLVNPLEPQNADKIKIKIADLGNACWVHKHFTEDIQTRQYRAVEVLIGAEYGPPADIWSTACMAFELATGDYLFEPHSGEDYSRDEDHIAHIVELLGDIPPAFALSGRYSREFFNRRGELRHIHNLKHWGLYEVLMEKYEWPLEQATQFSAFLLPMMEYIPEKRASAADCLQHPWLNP

Work on `CN(C(=O)c1cnn2cccnc12)c1cc2c(cc1N1CCOCC1)C(=O)N(C[C@@H](F)C(C)(C)O)C2` yielded a dTM [1] of 0.3 K.
In the case of `C=CC(=O)Nc1cc(-n2c(=O)ccc3cnc4ccc(-c5ccc(NS(C)(=O)=O)cc5)cc4c32)ccc1C`, the % of control [2] is reported as 75%.
`Cc1cnc(Nc2ccc(F)cc2Cl)nc1-c1c[nH]c(C(=O)N[C@H](CO)c2cccc(Cl)c2)c1` was tested, and the % of inhibition (Misshapen-like kinase 1) was 18%.
`C=CC(=O)Nc1cccc(C(=O)Nc2ccc(Nc3cc(-c4[nH]c(SC)nc4C)ccn3)cc2)c1` gave a % of control ([3]; at 1 µM) of 118% and a % of control ([3]; at 5 µM) of 106%.
Work on `N#Cc1cccc(-c2c[nH]c3ncnc(N4CCOCC4)c23)c1` yielded a % of control [4] of 27%.
`CNC(=O)Nc1ccc(-c2nc(N3CC4CCC(C3)O4)c3cnn(C4CCC5(CC4)OCCO5)c3n2)cc1` was tested, and the % of control [5] was 100%.
`CC[C@@H]1[C@H](F)C(=O)N[C@@H]1COc1nccc2cc(C(N)=O)c(OC)cc12` [ZIMLOVISERTIB] showed a % of inhibition [6] of 1.7%, a % of inhibition ([7]; at 0.01 µM) of 6.3% and a % of inhibition ([7]; at 0.04 µM) of 19.8%. The % of inhibition ([7]; at 0.2 µM) was 55.9%, the % of inhibition ([7]; at 1 µM) was 83.6% and the % of inhibition ([7]; at 5 µM) was 93.9%.
`CN(C)CCOc1ccc(-c2nc(-c3ccncc3)c(-c3ccc4c(c3)CC/C4=N\O)[nH]2)cc1` was tested, and the % of control [8] was 86%.
